According to paper PMC6979384, “Characterization of the plant homeodomain (PHD) reader family for their histone tail interactions” (Epigenetics & Chromatin, 2020):
Where “and” joins values, the source holds several entries; their conditions need not be identical. Equal entries are not always repeated.

Tests used:
Test in all cases: Histone peptide microarray
Format in all cases: binding, human
[1] = tested on: KDM5B (3); settings: KDM5B (3), GST-tagged; arrays performed twice, n of 4
How it was run: (§1)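 GST-PHD reader, 0.5 μM, probed on 293-peptide histone array (single/combinatorial PTMs); optimized array protocol; signal = mean ± SD, n = 4.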

[2] = tested on: KDM5A (1); settings: KDM5A (1), GST-tagged; arrays performed twice, n of 4
How it was run: as §1

[3] = tested on: CHD5 (PPCC); settings: CHD5 (PPCC), GST-tagged; arrays performed twice, n of 4
How it was run: as §1

[4] = tested on: BPTF (PB); settings: BPTF (PB), GST-tagged; arrays performed twice, n of 4
How it was run: as §1

[5] = tested on: DPF2 (PPC2W2); settings: DPF2 (PPC2W2), GST-tagged; arrays performed twice, n of 4
How it was run: as §1

[6] = tested on: TRIM66 (PB); settings: TRIM66 (PB), GST-tagged; arrays performed twice, n of 4
How it was run: as §1

[7] = tested on: KDM5A (3); settings: KDM5A (3), GST-tagged; arrays performed twice, n of 4
How it was run: as §1

[8] = tested on: KDM4C (TTP); settings: KDM4C (TTP), GST-tagged; arrays performed twice, n of 4
How it was run: as §1

[9] = tested on: DIDO1; settings: DIDO1, GST-tagged; arrays performed twice, n of 4
How it was run: as §1

[10] = tested on: TAF3; settings: TAF3, GST-tagged; arrays performed twice, n of 4
How it was run: as §1

[11] = tested on: PHF8; settings: PHF8, GST-tagged; arrays performed twice, n of 4
How it was run: as §1

[12] = tested on: MLL5; settings: MLL5, GST-tagged; arrays performed twice, n of 4
How it was run: as §1

[13] = tested on: MORC3 (CW); settings: MORC3 (CW), GST-tagged; arrays performed twice, n of 4
How it was run: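 Steps: express and purify GST-tagged PHD reader; incubate 0.5 μM protein on a peptide microarray (293 histone peptides, single or combined PTMs) following an optimized protocol; average signal across 4 replicates.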

[14] = tested on: PHF2; settings: PHF2, GST-tagged; arrays performed twice, n of 4
How it was run: as §1

[15] = tested on: RAG2; settings: RAG2, GST-tagged; arrays performed twice, n of 4
How it was run: as §1

[16] = tested on: KDM5B (1); settings: KDM5B (1), GST-tagged; arrays performed twice, n of 4
How it was run: as §1

[17] = tested on: ING2; settings: ING2, GST-tagged; arrays performed twice, n of 4
How it was run: as §1

[18] = tested on: KDM7A; settings: KDM7A, GST-tagged; arrays performed twice, n of 4
How it was run: as §1

[19] = tested on: CHD4 (PPCC); settings: CHD4 (PPCC), GST-tagged; arrays performed twice, n of 4
How it was run: as §1

[20] = tested on: PHF23; settings: PHF23, GST-tagged; arrays performed twice, n of 4
How it was run: as §1

[21] = tested on: BAZ2B; settings: BAZ2B, GST-tagged; arrays performed twice, n of 4
How it was run: as §1

[22] = tested on: ING5; settings: ING5, GST-tagged; arrays performed twice, n of 4
How it was run: as §1

[23] = tested on: PHF13; settings: PHF13, GST-tagged; arrays performed twice, n of 4
How it was run: as §1

[24] = tested on: AIRE (PP); settings: AIRE (PP), GST-tagged; arrays performed twice, n of 4
How it was run: as §1

[25] = tested on: CHD5 (PCC); settings: CHD5 (PCC), GST-tagged; arrays performed twice, n of 4
How it was run: as §1

[26] = tested on: SP140L; settings: SP140L, GST-tagged; arrays performed twice, n of 4
How it was run: as §1

[27] = tested on: ING1; settings: ING1, GST-tagged; arrays performed twice, n of 4
How it was run: as §1

[28] = tested on: ING3; settings: ING3, GST-tagged; arrays performed twice, n of 4
How it was run: as §1

[29] = tested on: PHRF1 (RP); settings: PHRF1 (RP), GST-tagged; arrays performed twice, n of 4
How it was run: as §1

[30] = tested on: ING4; settings: ING4, GST-tagged; arrays performed twice, n of 4
How it was run: as §1

[31] = tested on: PHF21A; settings: PHF21A, GST-tagged; arrays performed twice, n of 4
How it was run: as §1

Array Heatmap value (peptide array binding signal) [1]	Array Heatmap value (peptide array binding signal) [2]	Array Heatmap value (peptide array binding signal) [3]	Array Heatmap value (peptide array binding signal) [4]	Array Heatmap value (peptide array binding signal) [5]	Array Heatmap value (peptide array binding signal) [6]	Array Heatmap value (peptide array binding signal) [7]	Array Heatmap value (peptide array binding signal) [8]	Array Heatmap value (peptide array binding signal) [9]	Array Heatmap value (peptide array binding signal) [10]	Array Heatmap value (peptide array binding signal) [11]	Array Heatmap value (peptide array binding signal) [12]	Array Heatmap value (peptide array binding signal) [13]	Array Heatmap value (peptide array binding signal) [14]	Array Heatmap value (peptide array binding signal) [15]	Array Heatmap value (peptide array binding signal) [16]	Array Heatmap value (peptide array binding signal) [17]	Array Heatmap value (peptide array binding signal) [18]	Array Heatmap value (peptide array binding signal) [19]	Array Heatmap value (peptide array binding signal) [20]	Substance	also measured
0.4928	0.5728	0.6612	0.4151	0.7332	0.6284	0.5161	0.5731	0.819	0.3058	0.4123	0.6075	0.41	0.6877	0.2901	0.7243	0.6555	0.3972	0.6736	0.594	H3K27acK36me1 (21-44): H3 21-44	Array Heatmap value (peptide array binding signal) [21]: 0.5322; Array Heatmap value (peptide array binding signal) [22]: 0.4437; Array Heatmap value (peptide array binding signal) [23]: 0.7148; Array Heatmap value (peptide array binding signal) [24]: 0.4899; Array Heatmap value (peptide array binding signal) [25]: 0.8019; Array Heatmap value (peptide array binding signal) [26]: 0.402; Array Heatmap value (peptide array binding signal) [27]: 0.6463; Array Heatmap value (peptide array binding signal) [28]: 0.5657; Array Heatmap value (peptide array binding signal) [29]: 0.5526; Array Heatmap value (peptide array binding signal) [30]: 0.5489; Array Heatmap value (peptide array binding signal) [31]: 0.5223
0.4476 and 0.4512	0.4783 and 0.4109	0.5507 and 0.5149	0.3426 and 0.3388	0.7163 and 0.602	0.5511 and 0.5888	0.4461 and 0.4626	0.4885 and 0.4721	0.6948 and 0.6464	0.2617 and 0.2453	0.3474 and 0.3417	0.5387 and 0.5129	0.3508 and 0.3632	0.5335 and 0.4712	0.238 and 0.2335	0.6449 and 0.6364	0.6056 and 0.5874	0.3413 and 0.3447	0.5418 and 0.5498	0.5178 and 0.5191	H3K27acK36me2 (21-44): H3 21-44	Array Heatmap value (peptide array binding signal) [21]: 0.4609 and 0.4258; Array Heatmap value (peptide array binding signal) [22]: 0.3615 and 0.3253; Array Heatmap value (peptide array binding signal) [23]: 0.6217 and 0.5883; Array Heatmap value (peptide array binding signal) [24]: 0.4428 and 0.4192; Array Heatmap value (peptide array binding signal) [25]: 0.7409 and 0.7549; Array Heatmap value (peptide array binding signal) [26]: 0.3702 and 0.357; Array Heatmap value (peptide array binding signal) [27]: 0.5489 and 0.5171; Array Heatmap value (peptide array binding signal) [28]: 0.4824 and 0.4746; Array Heatmap value (peptide array binding signal) [29]: 0.4704 and 0.4395; Array Heatmap value (peptide array binding signal) [30]: 0.4678 and 0.4306; Array Heatmap value (peptide array binding signal) [31]: 0.4478 and 0.464
0.4828	0.4894	0.5645	0.3596	0.7036	0.6317	0.4289	0.4961	0.7412	0.2714	0.3497	0.5602	0.3556	0.5459	0.2439	0.6899	0.6078	0.3751	0.5911	0.5388	H3K36ac (21-44): H3 21-44	Array Heatmap value (peptide array binding signal) [21]: 0.4745; Array Heatmap value (peptide array binding signal) [22]: 0.3615; Array Heatmap value (peptide array binding signal) [23]: 0.6346; Array Heatmap value (peptide array binding signal) [24]: 0.4538; Array Heatmap value (peptide array binding signal) [25]: 0.8362; Array Heatmap value (peptide array binding signal) [26]: 0.3554; Array Heatmap value (peptide array binding signal) [27]: 0.5601; Array Heatmap value (peptide array binding signal) [28]: 0.4959; Array Heatmap value (peptide array binding signal) [29]: 0.4519; Array Heatmap value (peptide array binding signal) [30]: 0.4623; Array Heatmap value (peptide array binding signal) [31]: 0.4731
0.3806	0.422	0.4582	0.3001	0.6617	0.5169	0.3829	0.4185	0.5926	0.2241	0.3097	0.4918	0.3108	0.4036	0.2054	0.6354	0.5895	0.3181	0.5004	0.4625	H3K36me1 (21-44): H3 21-44	Array Heatmap value (peptide array binding signal) [21]: 0.3935; Array Heatmap value (peptide array binding signal) [22]: 0.2888; Array Heatmap value (peptide array binding signal) [23]: 0.5223; Array Heatmap value (peptide array binding signal) [24]: 0.395; Array Heatmap value (peptide array binding signal) [25]: 0.7445; Array Heatmap value (peptide array binding signal) [26]: 0.3238; Array Heatmap value (peptide array binding signal) [27]: 0.4725; Array Heatmap value (peptide array binding signal) [28]: 0.3958; Array Heatmap value (peptide array binding signal) [29]: 0.3839; Array Heatmap value (peptide array binding signal) [30]: 0.3966; Array Heatmap value (peptide array binding signal) [31]: 0.4184
